Measurements published in ChEMBL document CHEMBL2203160, “PPARγ agonist from Chromolaena odorata” (J Nat Prod, 2012).

Assays:
[1] = Cytotoxicity against human U251SP cells by MTT assay; type: functional, cell-based
[2] = test system: PC-6; test: Cytotoxicity against human PC6 cells by MTT assay; type: functional, cell-based

SMILES | IC50 [1] | IC50 [2]
COc1cc(O)c(C(=O)/C=C/c2ccc(O)cc2)c(OC)c1OC | 92.7 µM | 
COc1c(O)cc2c(c1OC)C(=O)c1ccc(C)cc1C2=O |  | 52.2 µM
